Patent US4619925A, “3-Propenyl cephalosporin derivatives” (priority 1985, dated 1986)
In brackets after ≈: the same amount, converted by molar mass. Read-outs that look alike come from different tables or passages of the source.

How the values were obtained:
Format in all cases: cell-based
N. meningitidis A20048 = assay: In vitro activity against fastidious bacteria; details: Neisseria meningitidis; N. meningitidis A20048; read-out: MIC
Excerpt: (§1) Table 5 contains comparative data for in vitro antibacterial activity against fastidious bacteria.

H. influenzae A22491 = assay: In vitro activity against fastidious bacteria; details: Haemophilus influenzae, ampicillin-resistant (ABPC-R)
Excerpt: as §1

N. meningitidis A21497 = assay: In vitro activity against fastidious bacteria; details: Neisseria meningitidis; N. meningitidis A21497; read-out: MIC
Excerpt: as §1

H. influenzae A22482 = assay: In vitro activity against fastidious bacteria; details: Haemophilus influenzae
Excerpt: as §1

H. influenzae A9729 = assay: In vitro activity against fastidious bacteria; details: Haemophilus influenzae; H. influenzae A9729; ampicillin-sensitive (ABPC-S); read-out: MIC
Excerpt: as §1

S. pyogenes A20065 = assay: In vitro activity against fastidious bacteria; details: Streptococcus pyogenes; S. pyogenes A20065; read-out: MIC
Excerpt: as §1

N. gonorrheae A15112 = assay: In vitro activity against fastidious bacteria; details: N. gonorrheae A15112; read-out: MIC
Excerpt: as §1

S. pyogenes s-23 = assay: In vitro activity against fastidious bacteria; details: Streptococcus pyogenes, S23; S. pyogenes s-23; read-out: MIC
Excerpt: as §1

S. pneumoniae A20759 = assay: In vitro activity against fastidious bacteria; details: Streptococcus pneumoniae; S. pneumoniae A20759; read-out: MIC
Excerpt: as §1

N. meningitidis A20049 = assay: In vitro activity against fastidious bacteria; details: Neisseria meningitidis; N. meningitidis A20049; read-out: MIC
Excerpt: as §1

S. pyogenes Dick = assay: In vitro activity against fastidious bacteria; details: Streptococcus pyogenes; S. pyogenes Dick; read-out: MIC
Excerpt: as §1

N. gonorrheae A20155 = assay: In vitro activity against fastidious bacteria; details: N. gonorrheae A20155; read-out: MIC
Excerpt: as §1

H. influenzae A22157 = assay: In vitro activity against fastidious bacteria; details: Haemophilus influenzae, ampicillin-resistant (ABPC-R)
Excerpt: as §1

H. influenzae A20177 = assay: In vitro activity against fastidious bacteria; details: Haemophilus influenzae; H. influenzae A20177; ampicillin-sensitive (ABPC-S); read-out: MIC
Excerpt: as §1

H. influenzae A9833 = assay: In vitro activity against fastidious bacteria; details: Haemophilus influenzae; H. influenzae A9833; ampicillin-sensitive (ABPC-S); read-out: MIC
Excerpt: as §1

N. meningitidis A21487 = assay: In vitro activity against fastidious bacteria; details: Neisseria meningitidis; N. meningitidis A21487; read-out: MIC
Excerpt: as §1

H. influenzae A22483 = assay: In vitro activity against fastidious bacteria; details: Haemophilus influenzae
Excerpt: as §1

N. meningitidis A21495 = assay: In vitro activity against fastidious bacteria; details: Neisseria meningitidis; N. meningitidis A21495; read-out: MIC
Excerpt: as §1

S. pyogenes A15040 = assay: In vitro activity against fastidious bacteria; details: Streptococcus pyogenes; S. pyogenes A15040; read-out: MIC
Excerpt: as §1

N. gonorrheae A20154 = assay: In vitro activity against fastidious bacteria; details: N. gonorrheae A20154; read-out: MIC
Excerpt: as §1

H. influenzae A21523 = assay: In vitro activity against fastidious bacteria; details: Haemophilus influenzae; H. influenzae A21523; ampicillin-sensitive (ABPC-S); read-out: MIC
Excerpt: as §1

S. pneumoniae Type I = assay: In vitro activity against fastidious bacteria; details: Streptococcus pneumoniae; S. pneumoniae Type I; read-out: MIC
Excerpt: as §1

S. pneumoniae Type III = assay: In vitro activity against fastidious bacteria; details: Streptococcus pneumoniae; S. pneumoniae Type III; read-out: MIC
Excerpt: as §1

N. gonorrheae A20143 = assay: In vitro activity against fastidious bacteria; details: N. gonorrheae A20143; read-out: MIC
Excerpt: as §1

H. influenzae A20193 = assay: In vitro activity against fastidious bacteria; details: Haemophilus influenzae; H. influenzae A20193; ampicillin-sensitive (ABPC-S); read-out: MIC
Excerpt: as §1

S. pneumoniae A15069 = assay: In vitro activity against fastidious bacteria; details: Streptococcus pneumoniae; S. pneumoniae A15069; read-out: MIC
Excerpt: as §1

S. pneumoniae A9585 = assay: In vitro activity against fastidious bacteria; details: Streptococcus pneumoniae; S. pneumoniae A9585; read-out: MIC
Excerpt: as §1

S. pneumoniae Type II = assay: In vitro activity against fastidious bacteria; details: Streptococcus pneumoniae; S. pneumoniae Type II; read-out: MIC
Excerpt: as §1

S. pyogenes A9604 = assay: In vitro activity against fastidious bacteria; details: Streptococcus pyogenes; S. pyogenes A9604; read-out: MIC
Excerpt: as §1

S. pyogenes A20201 = assay: In vitro activity against fastidious bacteria; details: Streptococcus pyogenes; S. pyogenes A20201; read-out: MIC
Excerpt: as §1

H. influenzae A22481 = assay: In vitro activity against fastidious bacteria; details: Haemophilus influenzae, ampicillin-resistant (ABPC-R)
Excerpt: as §1

E. coli A15148 = assay: MIC, agar dilution technique (Mueller-Hinton Agar); details: Escherichia coli; E. coli A15148; Gn-Ib, ampicillin and cephalothin resistant; read-out: Minimum Inhibitory Concentration
Excerpt: (§2) Each of these groups of organisms is constituted of five individual strains of microorganism. The Gp-Ia organisms are Gram-positive staphylococci which are sensitive to penicillin. The Gp-Ib organisms are Gram-positive staphylococci which are resistant to penicillin and produce penicillinase. The Gn-Ia organisms are Gram-negative bacteria which are sensitive to ampicillin and cephalothin. The Gn-Ib organisms are Gram-negative bacteria which are resistant to ampicillin and cephalothin.

K. pneumoniae A20345 = assay: MIC, agar dilution technique (Mueller-Hinton Agar); details: Klebsiella pneumoniae, Gn-Ib, ampicillin and cephalothin resistant, read-out: Minimum Inhibitory Concentration
Excerpt: as §2

E coli RGN-823 = assay: MIC, agar dilution technique (Mueller-Hinton Agar); details: Escherichia coli, RGN823, Gn-Ib, ampicillin and cephalothin resistant, read-out: Minimum Inhibitory Concentration
Excerpt: as §2

| Structure (SMILES) | MIC (N. meningitidis A20048) | MIC (H. influenzae A22491) | MIC (N. meningitidis A21497) | MIC (H. influenzae A9729) | MIC (S. pyogenes A20065) | MIC (N. gonorrheae A15112) | MIC (S. pyogenes s-23) | MIC (S. pneumoniae A20759) | MIC (N. meningitidis A20049) | MIC (S. pyogenes Dick) | MIC (N. gonorrheae A20155) | MIC (H. influenzae A22157) | MIC (H. influenzae A20177) | MIC (H. influenzae A9833) | MIC (N. meningitidis A21487) | MIC (N. meningitidis A21495) | MIC (S. pyogenes A15040) | MIC (N. gonorrheae A20154) | MIC (H. influenzae A21523) | MIC (S. pneumoniae Type I) | other results |
| --- | --- | --- | --- | --- | --- | --- | --- | --- | --- | --- | --- | --- | --- | --- | --- | --- | --- | --- | --- | --- | --- |
| C/C=C\C1=C(C(=O)O)N2C(=O)C(NC(=O)[C@H](N)c3cccc(O)c3)[C@H]2SC1 (some centres unmarked) [BMY-28272, 7-[(D)-2-amino-2-(3-hydroxyphenyl)acetamido]-3-[(Z)-1-propenyl]-3-cephem-4-carboxylic acid] | 0.8 µg/mL (≈ 2.05 µM) | 0.8 µg/mL (≈ 2.05 µM) | 0.4 µg/mL (≈ 1.03 µM) | 0.4 µg/mL (≈ 1.03 µM) | 0.05 µg/mL (≈ 0.128 µM) | 0.4 µg/mL (≈ 1.03 µM) | 0.05 µg/mL (≈ 0.128 µM) | 0.4 µg/mL (≈ 1.03 µM) | 0.8 µg/mL (≈ 2.05 µM) | 0.05 µg/mL (≈ 0.128 µM) | 0.4 µg/mL (≈ 1.03 µM) | 0.4 µg/mL (≈ 1.03 µM) | 0.8 µg/mL (≈ 2.05 µM) | 0.4 µg/mL (≈ 1.03 µM) | 0.8 µg/mL (≈ 2.05 µM) | 0.4 µg/mL (≈ 1.03 µM) | 0.05 µg/mL (≈ 0.128 µM) | 0.8 µg/mL (≈ 2.05 µM) | 0.8 µg/mL (≈ 2.05 µM) | 0.1 µg/mL (≈ 0.257 µM) | MIC (H. influenzae A22482; A22482): 0.4 µg/mL (≈ 1.03 µM); MIC (H. influenzae A22483; A22483): 0.4 µg/mL (≈ 1.03 µM); MIC (S. pneumoniae Type III): 0.4 µg/mL (≈ 1.03 µM); MIC (N. gonorrheae A20143): 0.8 µg/mL (≈ 2.05 µM); MIC (H. influenzae A20193): 0.8 µg/mL (≈ 2.05 µM); MIC (S. pneumoniae A15069): 0.4 µg/mL (≈ 1.03 µM); MIC (S. pneumoniae A9585): 0.1 µg/mL (≈ 0.257 µM); MIC (S. pneumoniae Type II): 0.1 µg/mL (≈ 0.257 µM); MIC (S. pyogenes A9604): 0.05 µg/mL (≈ 0.128 µM); MIC (S. pyogenes A20201): 0.05 µg/mL (≈ 0.128 µM); MIC (H. influenzae A22481): 0.8 µg/mL (≈ 2.05 µM); MIC (E. coli A15148): 25 µg/mL (≈ 64.2 µM); MIC (K. pneumoniae A20345): 6.3 µg/mL (≈ 16.2 µM); MIC (E coli RGN-823): 50 µg/mL (≈ 128 µM) |
| C/C=C\C1=C(C(=O)O)N2C(=O)C(NC(=O)[C@H](N)c3ccc(O)cc3)[C@H]2SC1 (stereo partly drawn) [BMY-28100, 7-[D-2-amino-2-(4-hydroxyphenyl)acetamido]-3-[(Z)-1-propen-1-yl]-3-cephem-4-carboxylic acid] | 0.4 µg/mL (≈ 1.03 µM) | 0.8 µg/mL (≈ 2.05 µM) | 0.4 µg/mL (≈ 1.03 µM) | 0.8 µg/mL (≈ 2.05 µM) | 0.05 µg/mL (≈ 0.128 µM) | 0.8 µg/mL (≈ 2.05 µM) | 0.05 µg/mL (≈ 0.128 µM) | 0.4 µg/mL (≈ 1.03 µM) | 0.4 µg/mL (≈ 1.03 µM) | 0.05 µg/mL (≈ 0.128 µM) | 0.8 µg/mL (≈ 2.05 µM) | 0.8 µg/mL (≈ 2.05 µM) | 0.8 µg/mL (≈ 2.05 µM) | 0.8 µg/mL (≈ 2.05 µM) | 0.4 µg/mL (≈ 1.03 µM) | 0.4 µg/mL (≈ 1.03 µM) | 0.05 µg/mL (≈ 0.128 µM) | 0.8 µg/mL (≈ 2.05 µM) | 0.8 µg/mL (≈ 2.05 µM) | 0.1 µg/mL (≈ 0.257 µM) | MIC (H. influenzae A22482; H. influenzae A22482, ampicillin-sensitive (ABPC-S), read-out: MIC): 0.8 µg/mL (≈ 2.05 µM); MIC (H. influenzae A22483; H. influenzae A22483, ampicillin-sensitive (ABPC-S), read-out: MIC): 0.8 µg/mL (≈ 2.05 µM); MIC (S. pneumoniae Type III): 0.2 µg/mL (≈ 0.514 µM); MIC (N. gonorrheae A20143): 0.8 µg/mL (≈ 2.05 µM); MIC (H. influenzae A20193): 0.8 µg/mL (≈ 2.05 µM); MIC (S. pneumoniae A15069): 0.4 µg/mL (≈ 1.03 µM); MIC (S. pneumoniae A9585): 0.1 µg/mL (≈ 0.257 µM); MIC (S. pneumoniae Type II): 0.1 µg/mL (≈ 0.257 µM); MIC (S. pyogenes A9604): 0.05 µg/mL (≈ 0.128 µM); MIC (S. pyogenes A20201): 0.05 µg/mL (≈ 0.128 µM); MIC (H. influenzae A22481): 0.8 µg/mL (≈ 2.05 µM); MIC (E. coli A15148): 50 µg/mL (≈ 128 µM); MIC (K. pneumoniae A20345): 6.3 µg/mL (≈ 16.2 µM); MIC (E coli RGN-823): > 50 µg/mL |
